Measurements from PubChem BioAssay AID330 (DTP/NCI, 2004).
“And” between values parts separate entries of the source, which are not always exact repeats. Equal entries are not always repeated. Toxic doses and inconclusive results are not listed. How the source made its calls: active means survival T/C of 150% or more; inactive means T/C below 125% in these data.

System: P388 leukemia ip, CD2F1 mice, survival T/C
Assay: NCI In Vivo Anticancer Drug Screen. Data for tumor model P388 Leukemia (intraperitoneal) in CD2F1 (CDF1) mice
Conditions: endpoint: median survival time, higher = longer survival
In short: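 Mice carrying the transplanted tumor received test compound or vehicle. Survival was recorded in each group, and the value is the treated-group measurement divided by that of the vehicle-treated control group.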

[1] = dose: 50.0 mg/kg/injection, schedule: Q01DX009 (ip), vehicle: saline
[2] = dose: 100.0 mg/kg/injection, schedule: Q01DX009 (ip), vehicle: saline
[3] = dose: 200.0 mg/kg/injection, schedule: Q01DX009 (ip), vehicle: saline
[4] = dose: 50.0 mg/kg/injection, schedule: Q01DX005 (ip), vehicle: saline with Tween-80
[5] = dose: 100.0 mg/kg/injection, schedule: Q01DX005 (ip), vehicle: saline with Tween-80
[6] = dose: 200.0 mg/kg/injection, schedule: Q01DX005 (ip), vehicle: saline with Tween-80
[7] = dose: 2.5 mg/kg/injection, schedule: Q01DX009 (ip), vehicle: saline with Tween-80
[8] = dose: 5.0 mg/kg/injection, schedule: Q01DX009 (ip), vehicle: saline with Tween-80
[9] = dose: 10.0 mg/kg/injection, schedule: Q01DX009 (ip), vehicle: saline with Tween-80
[10] = dose: 50.0 mg/kg/injection, schedule: Q01DX009 (ip), vehicle: Klucel (hydroxypropylcellulose) (HPC)
[11] = dose: 100.0 mg/kg/injection, schedule: Q01DX009 (ip), vehicle: Klucel (hydroxypropylcellulose) (HPC)
[12] = dose: 200.0 mg/kg/injection, schedule: Q01DX009 (ip), vehicle: Klucel (hydroxypropylcellulose) (HPC)
[13] = dose: 50.0 mg/kg/injection, schedule: Q01DX005 (ip), vehicle: Klucel (hydroxypropylcellulose) (HPC)
[14] = dose: 100.0 mg/kg/injection, schedule: Q01DX005 (ip), vehicle: Klucel (hydroxypropylcellulose) (HPC)
[15] = dose: 200.0 mg/kg/injection, schedule: Q01DX005 (ip), vehicle: Klucel (hydroxypropylcellulose) (HPC)
[16] = dose: 60.0 mg/kg/injection, schedule: Q01DX005 (ip), vehicle: saline with Tween-80
[17] = dose: 120.0 mg/kg/injection, schedule: Q01DX005 (ip), vehicle: saline with Tween-80
[18] = dose: 60.0 mg/kg/injection, schedule: Q01DX005 (ip), vehicle: Klucel (hydroxypropylcellulose) (HPC)

Measured: T/C

Clc1cccc(/C=C/c2ccnnc2)c1
inactive: [1] 101 % of control | [2] 86 % of control and 97 % of control | [3] 103 % of control and 96 % of control

CCOc1c(N=Nc2ccc(Cl)cc2)c(-c2ccccc2)nn1C(=S)S
inactive: [4] 97 % of control | [5] 99 % of control | [6] 91 % of control

Cc1ccccc1C[P+](c1ccccc1)(c1ccccc1)c1ccccc1
inactive: dose: 0.62 mg/kg/injection, schedule: Q01DX009 (ip), vehicle: saline with Tween-80 95 % of control | dose: 1.25 mg/kg/injection, schedule: Q01DX009 (ip), vehicle: saline with Tween-80 100 % of control | [7] 104 % of control | [8] 117 % of control | dose: 5.0 mg/kg/injection, schedule: Q04DX003 (ip), vehicle: saline with Tween-80 100 % of control | [9] 95 % of control | dose: 10.0 mg/kg/injection, schedule: Q04DX003 (ip), vehicle: saline with Tween-80 87 % of control

CC(C)C(NC(=O)c1ccccc1)C(=O)O (configuration not stated)
inactive: [4] 98 % of control | [5] 93 % of control | [6] 88 % of control

C=C1C(=O)OC2C/C(C)=C/CC/C(C)=C/CCC3(COC(C)=O)OC3CC12 (configuration not stated)
inactive: dose: 1.0 mg/kg/injection, schedule: Q01DX008 (ip), vehicle: Klucel (hydroxypropylcellulose) (HPC) 99 % of control | dose: 2.0 mg/kg/injection, schedule: Q01DX008 (ip), vehicle: Klucel (hydroxypropylcellulose) (HPC) 100 % of control | dose: 4.0 mg/kg/injection, schedule: Q01DX008 (ip), vehicle: Klucel (hydroxypropylcellulose) (HPC) 97 % of control | dose: 8.0 mg/kg/injection, schedule: Q01DX008 (ip), vehicle: Klucel (hydroxypropylcellulose) (HPC) 103 % of control | dose: 16.0 mg/kg/injection, schedule: Q01DX008 (ip), vehicle: Klucel (hydroxypropylcellulose) (HPC) 107 % of control

COC(=O)c1ccccc1NC(CCN1CCN(CCC(=NC(C)(C)C)Nc2ccccc2C(=O)OC)CC1)=NC(C)(C)C
inactive: [10] 93 % of control | [11] 96 % of control | [12] 92 % of control

CN=C(c1ccc(NC(=O)c2cccc(C(=O)Nc3ccc(C(=NC)N(C)C4CCCCC4)cc3)c2)cc1)N(C)C1CCCCC1
inactive: dose: 1.56 mg/kg/injection, schedule: Q01DX005 (ip), vehicle: Klucel (hydroxypropylcellulose) (HPC) 104 % of control | dose: 3.12 mg/kg/injection, schedule: Q01DX005 (ip), vehicle: Klucel (hydroxypropylcellulose) (HPC) 102 % of control

COC(=O)C(N)=NCC(C)NC(=O)c1ccccc1 (configuration not stated)
inactive: [10] 99 % of control | [11] 101 % of control | [12] 100 % of control

O=C1c2ccccc2C(=C(c2ccccc2)c2ccccc2)c2ccccc21
inactive: [13] 89 % of control | [14] 88 % of control | [15] 86 % of control

Cc1ccc2c(c1)CCCc1c-2nn(-c2ccccc2)c1-c1ccc(Cl)cc1
inactive: [4] 86 % of control | [5] 92 % of control | [6] 90 % of control

CC/C(=C(/CC)c1ccc(O)c(N(CCCl)CCCl)c1)c1ccc(O)c(N(CCCl)CCCl)c1
inactive: dose: 7.5 mg/kg/injection, schedule: Q01DX009 (ip), vehicle: saline 106 % of control | dose: 15.0 mg/kg/injection, schedule: Q01DX009 (ip), vehicle: saline 89 % of control | dose: 30.0 mg/kg/injection, schedule: Q01DX009 (ip), vehicle: saline 105 % of control

O=c1/c(=C/c2ccc(/C=c3\sc4nc5ccccc5n4c3=O)cc2)sc2nc3ccccc3n12
inactive: [4] 92 % of control | [5] 90 % of control | [6] 95 % of control

C[As](C)[Se]CC1OC2OC(C)(C)OC2C2OC(C)(C)OC12 (configuration not stated)
inactive: [10] 89 % of control | [11] 90 % of control | [12] 92 % of control

COc1ccc2c(c1)CCC1(C)CC(=O)C(Br)=C21 (configuration not stated)
inactive: dose: 6.25 mg/kg/injection, schedule: Q01DX009 (ip), vehicle: Klucel (hydroxypropylcellulose) (HPC) 109 % of control and 112 % of control and 114 % of control | dose: 12.5 mg/kg/injection, schedule: Q01DX009 (ip), vehicle: Klucel (hydroxypropylcellulose) (HPC) 100 % of control and 107 % of control and 114 % of control | dose: 25.0 mg/kg/injection, schedule: Q01DX009 (ip), vehicle: Klucel (hydroxypropylcellulose) (HPC) 102 % of control and 107 % of control | [10] 106 % of control

N#CSCc1ccccc1Cl
inactive: [7] 104 % of control | [8] 104 % of control | [9] 90 % of control

Cc1nc(Nc2c(C)cccc2C)c2c(C)c(Cc3ccccc3)[nH]c2n1
inactive: [13] 89 % of control | [14] 89 % of control | [15] 104 % of control

C=C(C)CCP(=S)(OCC)OCC
inactive: [16] 102 % of control | [17] 101 % of control | dose: 240.0 mg/kg/injection, schedule: Q01DX005 (ip), vehicle: saline with Tween-80 100 % of control

Cc1cccc(C)c1N=Cc1ccc([N+](=O)[O-])cc1
inactive: [1] 100 % of control | [2] 99 % of control | [3] 102 % of control

COc1cc2c(c(OC)c1OC)-c1c(cc3c(c1OC)OCO3)C1OC2C(C)C1C (configuration not stated) (tested in a mixture with another compound)
inactive: dose: 25.0 mg/kg/injection, schedule: Q01DX005 (ip), vehicle: Klucel (hydroxypropylcellulose) (HPC) 100 % of control | [13] 97 % of control | [14] 100 % of control and 101 % of control | [15] 103 % of control and 106 % of control | dose: 400.0 mg/kg/injection, schedule: Q01DX005 (ip), vehicle: Klucel (hydroxypropylcellulose) (HPC) 99 % of control

CC(=O)Cc1ncn(-c2cc(C)on2)n1
inactive: [18] 111 % of control | dose: 120.0 mg/kg/injection, schedule: Q01DX005 (ip), vehicle: Klucel (hydroxypropylcellulose) (HPC) 113 % of control | dose: 240.0 mg/kg/injection, schedule: Q01DX005 (ip), vehicle: Klucel (hydroxypropylcellulose) (HPC) 100 % of control

NS(=O)(=O)c1ccc(N2C(=S)N(c3ccccc3)C(=Nc3ccccc3)C2=Nc2ccccc2)cc1
inactive: dose: 50.0 mg/kg/injection, schedule: Q01DX005 (ip), vehicle: Klucel + Tween-80 96 % of control | dose: 100.0 mg/kg/injection, schedule: Q01DX005 (ip), vehicle: Klucel + Tween-80 105 % of control | dose: 200.0 mg/kg/injection, schedule: Q01DX005 (ip), vehicle: Klucel + Tween-80 89 % of control

COc1ccc(OC)c(NCCCN2C(=O)c3ccccc3C2=O)c1
inactive: [16] 90 % of control | [17] 86 % of control

COc1cc2c(c(OC)c1OC)-c1cc3c(cc1CC1COC(=O)N1C2)OCO3 (configuration not stated)
inactive: dose: 15.0 mg/kg/injection, schedule: Q01DX005 (ip), vehicle: Klucel (hydroxypropylcellulose) (HPC) 90 % of control and 94 % of control | dose: 30.0 mg/kg/injection, schedule: Q01DX005 (ip), vehicle: Klucel (hydroxypropylcellulose) (HPC) 100 % of control and 105 % of control | [18] 103 % of control and 116 % of control and 96 % of control

CC(C)(C)N=C(CCN1CCN(c2ccccc2)CC1)Nc1c(Cl)cccc1Cl
inactive: dose: 12.5 mg/kg/injection, schedule: Q01DX009 (ip), vehicle: saline 91 % of control | dose: 25.0 mg/kg/injection, schedule: Q01DX009 (ip), vehicle: saline 97 % of control | dose: 50.0 mg/kg/injection, schedule: Q01DX009 (ip), vehicle: saline with Tween-80 94 % of control | [1] 100 % of control | dose: 100.0 mg/kg/injection, schedule: Q01DX009 (ip), vehicle: saline with Tween-80 96 % of control

O=C(CCCCC(=O)N1CCOCC1)N1CCOCC1
inactive: dose: 50.0 mg/kg/injection, schedule: Q01DX005 (ip), vehicle: saline 100 % of control | dose: 100.0 mg/kg/injection, schedule: Q01DX005 (ip), vehicle: saline 101 % of control | dose: 200.0 mg/kg/injection, schedule: Q01DX005 (ip), vehicle: saline 101 % of control

CCOC1N(c2ccccc2)CN(C2CCCCC2)CC1(C)C (configuration not stated)
inactive: dose: 6.25 mg/kg/injection, schedule: Q01DX009 (ip), vehicle: saline with Tween-80 100 % of control | dose: 12.5 mg/kg/injection, schedule: Q01DX009 (ip), vehicle: saline with Tween-80 98 % of control | dose: 25.0 mg/kg/injection, schedule: Q01DX009 (ip), vehicle: saline with Tween-80 102 % of control
